Tested on: SEM cells
Assay: cell viability relative to DMSO control; higher = less cytotoxic
Conditions: 48 h
In short: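 Viability is a per-plate percentage relative to DMSO wells, with cell-free wells as background. CellTiter-Glo One luminescence was read after 48 h at 37°C on 1536-well plates (5 μl) of NOMO1 or SEM (500 cells/well) or P12-Ichikawa (1000 cells/well) leukemia cells. The cells had been adapted for at least four passages in each medium and pin-dosed with library compounds in DMSO from 47 μM to 0.79 nM in 11 threefold steps.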

[1] = RPMI 5 mM glucose + 10% FBS, 0.000781 µM
[2] = RPMI 5 mM glucose + 10% FBS, 0.00234 µM
[3] = RPMI 5 mM glucose + 10% FBS, 0.00702 µM
[4] = RPMI 5 mM glucose + 10% FBS, 0.0211 µM
[5] = RPMI 5 mM glucose + 10% FBS, 0.0632 µM
[6] = RPMI 5 mM glucose + 10% FBS, 0.19 µM
[7] = RPMI 5 mM glucose + 10% FBS, 0.569 µM
[8] = RPMI 5 mM glucose + 10% FBS, 1.71 µM
[9] = RPMI 5 mM glucose + 10% FBS, 5.12 µM
[10] = RPMI 5 mM glucose + 10% FBS, 15.4 µM
[11] = RPMI 5 mM glucose + 10% FBS, 46.1 µM
[12] = RPMI 5 mM glucose + 10% dialyzed FBS, 0.000781 µM
[13] = RPMI 5 mM glucose + 10% dialyzed FBS, 0.00234 µM
[14] = RPMI 5 mM glucose + 10% dialyzed FBS, 0.00702 µM
[15] = RPMI 5 mM glucose + 10% dialyzed FBS, 0.0211 µM
[16] = RPMI 5 mM glucose + 10% dialyzed FBS, 0.0632 µM
[17] = RPMI 5 mM glucose + 10% dialyzed FBS, 0.19 µM
[18] = RPMI 5 mM glucose + 10% dialyzed FBS, 0.569 µM
[19] = RPMI 5 mM glucose + 10% dialyzed FBS, 1.71 µM
[20] = RPMI 5 mM glucose + 10% dialyzed FBS, 5.12 µM
[21] = RPMI 5 mM glucose + 10% dialyzed FBS, 15.4 µM
[22] = RPMI 5 mM glucose + 10% dialyzed FBS, 46.1 µM
[23] = HPLM + 10% dialyzed FBS, 0.000781 µM
[24] = HPLM + 10% dialyzed FBS, 0.00234 µM
[25] = HPLM + 10% dialyzed FBS, 0.00702 µM
[26] = HPLM + 10% dialyzed FBS, 0.0211 µM
[27] = HPLM + 10% dialyzed FBS, 0.0632 µM
[28] = HPLM + 10% dialyzed FBS, 0.19 µM
[29] = HPLM + 10% dialyzed FBS, 0.569 µM
[30] = HPLM + 10% dialyzed FBS, 1.71 µM
[31] = HPLM + 10% dialyzed FBS, 5.12 µM
[32] = HPLM + 10% dialyzed FBS, 15.4 µM
[33] = HPLM + 10% dialyzed FBS, 46.1 µM

Row | SMILES | cell viability [1] [%] | cell viability [2] [%] | cell viability [3] [%] | cell viability [4] [%] | cell viability [5] [%] | cell viability [6] [%] | cell viability [7] [%] | cell viability [8] [%] | cell viability [9] [%] | cell viability [10] [%] | cell viability [11] [%] | cell viability [12] [%] | cell viability [13] [%] | cell viability [14] [%] | cell viability [15] [%] | cell viability [16] [%] | cell viability [17] [%] | cell viability [18] [%] | cell viability [19] [%] | cell viability [20] [%] | cell viability [21] [%] | cell viability [22] [%] | cell viability [23] [%] | cell viability [24] [%] | cell viability [25] [%] | cell viability [26] [%] | cell viability [27] [%] | cell viability [28] [%] | cell viability [29] [%] | cell viability [30] [%] | cell viability [31] [%] | cell viability [32] [%] | cell viability [33] [%]
1 | COc1ccc2c(c1)CC[C@@H](CN(C)CC(=O)O)[C@H]2c1ccccc1 | 120 | 122 | 126 | 109 | 124 | 104 | 110 | 79.8 | 31 | 20.9 | 16 | 94.9 | 100 | 101 | 110 | 109 | 115 | 115 | 91.3 | 41.5 | 24.8 | 19.9 | – | – | – | – | – | – | – | – | – | – | –
2 | CC1CCN(c2cc(N3CCN(C)CC3)ccc2NC(=O)c2cc(C#N)c[nH]2)CC1 | 119 | 124 | 136 | 137 | 123 | 123 | 133 | 129 | 92.9 | 102 | 83.5 | – | – | – | – | – | – | – | – | – | – | – | 122 | 119 | 120 | 129 | 129 | 121 | 124 | 118 | 112 | 102 | 93.6
3 | CC(=O)O/N=C1/C(=C2\C(=O)Nc3cc(Br)ccc32)Nc2ccccc21 | 112 | 116 | 109 | 108 | 119 | 102 | 87.6 | 29.5 | 22.4 | 8.09 | 0.612 | 113 | 122 | 122 | 129 | 100 | 95 | 84.6 | 30.1 | 37.5 | 11.8 | 1.61 | 128 | 110 | 119 | 118 | 111 | 113 | 86.1 | 37.8 | 32.8 | 13.2 | 2.6
4 | CC(C)C1=N[N](C\2=C1C(=O)N\C(=N2)CC3=CC=C(OCCO)C=C3)C4=C(Cl)C=CC=C4Cl | 52.1 | 98.6 | 85.3 | 75.8 | 76.5 | 13.8 | 6.73 | 4.7 | 4.18 | 4.05 | 2.06 | 90.4 | 102 | 100 | 109 | 107 | 34.2 | 8.73 | 6.73 | 5.07 | 4.3 | 3.59 | 95.1 | 125 | 108 | 109 | 95.9 | 16.8 | 8.67 | 6.16 | 5.35 | 4.68 | 3.44
